# Data from PMC10333884, “Large‐scale phosphomimetic screening identifies phospho‐modulated motif‐based protein interactions” (Molecular Systems Biology, 2023).
# Residues, ends and D or L forms follow the SMILES beside them. *: point of attachment. FITC = O=C1OC2(c3ccc(O)cc3Oc3cc(O)ccc32)c2ccc(NC(=S)*)cc21
# Columns and labels:
# [1] = target: T1, RANBP2 RanBD1 4 (Homo sapiens, UniProt P49792); experiment: FP saturation experiment, RANBP2 RanBD1 4; conditions: FP saturation (direct binding), 5 nM FITC-labelled peptide, 50 mM sodium phosphate pH 7.4, room temperature; at least technical triplicates; probe from this study; read-out: KD [µM] + SE
# T1 construct: GST (cleaved yes); made in house; host or cells: Escherichia coli BL21-Gold(DE3)
# T1 sequence (P49792 2924-3050): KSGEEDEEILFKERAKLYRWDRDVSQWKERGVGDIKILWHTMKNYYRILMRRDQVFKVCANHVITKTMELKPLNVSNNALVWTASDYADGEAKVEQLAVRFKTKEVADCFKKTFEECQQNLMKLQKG
# Procedure: (§1) FP experiments were performed as described previously (Kliche et al, [2021]). Shortly, in order to monitor the binding event, FITC‐labelled peptides were used (excitation 495 nm, emission: 535 nm) and the FP signal was recorded in mP on a SpectraMax iD5 Multi‐Mode Microplate Reader (Molecular Devices) by measuring the emitted light in two angels. The measurements were performed at room temperature and prepared in nonbinding black half area 96‐well microplates (Corning®; 50 μl/well). For measuring direct binding, that is saturation curves, a 1:1 dilution series of protein domain (25 μl/well) was generated in 50 mM sodium phosphate buffer pH 7.4 and the measurement performed with 5 nM FITC‐labelled peptide (25 μl/well). The buffer‐corrected values were subsequently plotted with PRISM and fitted to the quadratic equation (Gianni et al, [2005]).
# [2] = target: T2, PDCD6IP Alix V domain (Homo sapiens, UniProt Q8WUM4); experiment: FP saturation experiment, PDCD6IP Alix V domain; conditions: FP saturation (direct binding), 5 nM FITC-labelled peptide, 50 mM sodium phosphate pH 7.4, room temperature; at least technical triplicates; reference for probe peptide RiboVD, Mihalič et al, to be published; read-out: KD [µM] + SE
# T2 construct: GST (cleaved yes); made in house; host or cells: Escherichia coli BL21-Gold(DE3)
# T2 sequence (Q8WUM4 360-702): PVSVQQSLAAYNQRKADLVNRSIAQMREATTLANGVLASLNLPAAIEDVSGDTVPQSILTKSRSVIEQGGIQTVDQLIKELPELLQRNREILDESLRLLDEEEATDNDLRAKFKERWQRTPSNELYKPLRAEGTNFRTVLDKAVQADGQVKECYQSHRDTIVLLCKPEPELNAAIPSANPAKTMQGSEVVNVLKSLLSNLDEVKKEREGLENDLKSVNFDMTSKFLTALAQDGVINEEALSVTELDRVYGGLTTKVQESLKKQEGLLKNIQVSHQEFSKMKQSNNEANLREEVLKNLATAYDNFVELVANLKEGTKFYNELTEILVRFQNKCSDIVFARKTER
# Procedure: as §1
Kd [1] [µM],SMILES,Kd [2] [µM]
22 ± 1,CC(C)C[C@H](NC(=O)[C@H](C)NC(=O)[C@H](CCC(=O)O)NC(=O)[C@H](CCCCN)NC(=S)Nc1ccc2c(c1)C(=O)OC21c2ccc(O)cc2Oc2cc(O)ccc21)C(=O)N[C@@H](C)C(=O)N[C@H](C(=O)N1CCC[C@H]1C(=O)N[C@@H](CC(C)C)C(=O)N1CCC[C@H]1C(=O)N[C@@H](CCCCN)C(N)=O)[C@@H](C)O [FITC-C7orf25] ({FITC}-KEALATPLPK-NH2),–
–,CC(C)C[C@H](NC(=O)[C@H](CO)NC(=O)[C@@H](NC(=O)[C@H](CC(C)C)NC(=O)[C@@H]1CCCN1C(=O)[C@@H]1CCCN1C(=O)[C@H](Cc1ccc(O)cc1)NC(=O)[C@H](CC(C)C)NC(=O)[C@H](CO)NC(=S)Nc1ccc2c(c1)C(=O)OC21c2ccc(O)cc2Oc2cc(O)ccc21)[C@@H](C)O)C(=O)N[C@@H](CCCNC(=N)N)C(=O)O [FITC-HIV1_Gag] ({FITC}-SLYPPLTSLR-OH),3.6 ± 0.3
